For data set [1] the following is noted: doses of between 10 mg and 80 mg; previous studies; cited from earlier work.
The conditions of data set [2]: recent studies; versus omeprazole, lansoprazole and other PPIs; cited from earlier work.
For data set [3], the system named is ligature of the pylorus in the rat (gastric secretions). The data set is described as follows: model of ligature of the pylorus in the rat: volume and pH of gastric secretion. Format: in vivo. The following applies: for pharmacological effect 10 h after treatment administration: pylorus ligature, as compared to the control group. How it is done: In vivo Studies in Rats: Assessment of Volume and pH of Gastric Secretion. Studies conducted by the applicant in vivo in a model of ligature of the pylorus in the rat have investigated the pharmacological effects of the (−) and (+) isomers of tenatoprazole. In this well established and validated model, animals are pre-treated at different time points (10, 16 and 20 h) before ligature of the pylorus, and the volume and pH of the gastric secretions are measured 4 h after the ligature.

The test system of the next data set is intragastric pH in dogs. The data set is described as follows: antisecretory effect in dogs: intragastric pH over 24 h. The format is in vivo. The following applies: for % of holding time for 24 hours pH > 3 / % of holding time for 24 hours pH > 4: 10 mg/kg/day. How it is done:
In vivo Studies in Dogs: Assessment of the Antisecretory Effect. Studies conducted by the applicant in vivo in dogs have investigated the antisecretory effect of the (−) isomer of tenatoprazole and the (+) isomer, by measuring the intragastric pH after treatment administration for 6 days (10 mg/kg/day). The profile of intragastric pH during a 24-hour period was recorded on the first two days of administration, on the 6th day, and two days after treatment termination. These pH values were compared to those measured at baseline, prior to treatment administration. The results corresponding to the pH>3 and pH>4 holding time for 24 h, expressed in percent, are described below: […]

The next data set concerns the target CYP2C19 (Homo sapiens, UniProt P33261). The experiment in a line: in vitro metabolism by cytochrome: maximal rate of metabolism (Vmax). The format is in vitro ADME. The following applies: for Vmax (maximal rate of metabolism): in vitro. From the text: Vmax (−) is the value of Vmax of the (−) enantiomer of tenatoprazole.
Data set [4] deals with cytochromes CYP3A4 and CYP2C19. The experiment in a line: cytochromes that intervene in the metabolism of tenatoprazole. Format: in vitro ADME. From the text: Further, it has been shown that different cytochromes intervene in the metabolism of tenatoprazole.
Data set [5] in a line: analysis of plasma enantiomers in subjects by CYP2C19 genotype. The format is in vivo, human. The following applies: for enantiomer in plasma: CYP2C19*2/*2 genotype, weak activity of cytochrome CYP2C19, slow metabolisers; for enantiomer in plasma (concentration): CYP2C19*1/*1 genotype, normal activity of cytochrome CYP2C19, rapid metabolisers. The text has this: More particularly, the unexpected pharmacokinetic properties of the (−) enantiomer of tenatoprazole were discovered during an extensive program of pharmacokinetic and metabolism studies in vitro and in vivo.
The homozygous subjects have a very weak metabolic activity of the cytochrome CYP2C19 which is responsible for the metabolism of tenatoprazole. […] These subjects are qualified as “slow metabolisers”.

Data set [6] can be described thus: pharmacokinetic study in Caucasian subjects, acute and repeated administration (7 days) of tenatoprazole. Format: in vivo, human. Here is the method: In order to assess the difference in pharmacokinetic characteristics between the (−) enantiomer of the invention and the (+) enantiomer, a pharamcokinetic study was conducted.
Said study was carried out in Caucasian subjects, after an acute and repeated administration (7 days) of tenatoprazole. […] In contrast, it was observed that the evolution of the plasma concentration of the (+) isomer is not linear, and thus not predictive of the efficacy and the tolerability of the drug.

Data set [7] can be described thus: elimination half-life in slow metabolisers. Format: in vivo, human. The following applies: slow metabolisers (deficient in CYP2C19 activity). Here is the method:
In another study, it was assessed that the elimination half-life of the (−) isomer of tenatoprazole is approximately 4 times shorter than that of the (+) isomer in slow metabolisers (which are deficient in CYP2C 19 activity), as summarised in the following table: […]

For data set [8], the system named is ulcerative lesions in rats. The data set is described as follows: onset of healing and normalisation of histological changes of ulcerative lesions in rats. The format is in vivo. The text has this: In vivo Studies in Rats: Assessment of the Onset of Healing and the Increase of Normalisation of Histological Changes of the Lesions. […] Thus, the effect observed with the (−) enantiomer of tenatoprazole appeared 1 day before those of the (+) enantiomer. […] These changes consisted in a reduction of the ultrastructural damage resulting in a complete morphological recovery of the oesophageal epithelium.

Data set [9] in a line: in vivo pharmacokinetic and metabolism study in dogs.
Data set [10] in a line: mean plasma half-life at doses between 10 mg and 80 mg. The format is in vivo. The following applies: human, doses of between 10 mg and 80 mg. How it is done: In contrast, previous studies have shown that the racemic mixture has a mean plasma half-life of approximately 7 hours at this range of doses
Setting [11] is: 10 h after treatment administration, gastric secretions measured 4 h after the ligature.
The mark [12] stands for this setting: after 7 days of treatment with tenatoprazole.

Like-named read-outs stand apart in the source and are kept apart here.

CYP2C19, sequence (P33261 whole entry): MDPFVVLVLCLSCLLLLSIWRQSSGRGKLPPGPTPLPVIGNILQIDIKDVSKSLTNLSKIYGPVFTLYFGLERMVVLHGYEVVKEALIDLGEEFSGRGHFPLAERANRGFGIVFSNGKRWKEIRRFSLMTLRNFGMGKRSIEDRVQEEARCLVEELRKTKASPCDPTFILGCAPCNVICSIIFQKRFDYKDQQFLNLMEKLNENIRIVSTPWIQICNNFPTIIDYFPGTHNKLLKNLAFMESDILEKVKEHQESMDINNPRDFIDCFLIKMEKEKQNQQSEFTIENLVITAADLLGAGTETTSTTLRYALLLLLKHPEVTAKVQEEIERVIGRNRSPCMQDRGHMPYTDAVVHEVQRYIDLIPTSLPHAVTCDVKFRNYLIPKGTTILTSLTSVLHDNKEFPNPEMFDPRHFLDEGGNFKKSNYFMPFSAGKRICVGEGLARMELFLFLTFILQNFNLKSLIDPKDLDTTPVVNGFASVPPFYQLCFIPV

Consider `COc1ccc2[nH]c([S+]([O-])Cc3ncc(C)c(OC)c3C)nc2n1` (racemic) [racemic mixture, 5-methoxy-2-[[(4-methoxy-3,5-dimethyl-2-pyridyl)methyl]sulfinyl]imidazo[4,5-b]pyridine], for which the mean plasma half-life result in [1] is listed as “approximately 7 hours”. Moreover, in data set [2], the “half-life in plasma compared with the other PPIs” value was “approximately seven times longer”.
Consider `COc1ccc2[nH]c([S@+]([O-])Cc3ncc(C)c(OC)c3C)nc2n1` (single isomer, unassigned) [(+) isomer, reference compound], for which, in data set [3] (setting [11]), the “Free acid (gastric acidity, change as compared to the control group)” value was −30%. In [3] (setting [11]), the “pH (change as compared to the control group)” value is recorded as “+30%”. In data set [3], the “pharmacological effect 10 h after treatment administration” value is “no longer significant”. In addition, the “inhibition of gastric secretion” value with intragastric pH in dogs (10 mg/kg/day for 6 days) is given as “inhibit gastric secretion”. Further, on CYP2C19, the “Vmax (maximal rate of metabolism)” value is on record as 12.63 pmol/min per pmol of cytochrome. Also, in [4], the “cytochromes via which the enantiomer is metabolised” value was “mainly the CYP2C19 and, to a lesser extent, by CYP3A4”. Besides, the enantiomer in plasma result is recorded as “Increased” in [5] (listed as (+) Enantiomer) and “highly significant increase” in data set [5] (listed as (+) enantiomer). In addition, the “plasma concentration versus dose” value in [6] (setting [12]) is “not linear”. Moreover, in data set [7], the “T1/2 (elimination half-life)” value turned out to be 36.7 ± 4.5 h.
Consider `COc1ccc2[nH]c([S+]([O-])Cc3ncc(C)c(OC)c3C)nc2n1` (single isomer, unassigned; (-)) [(−) isomer, (−)-5-methoxy-2-[[(4-methoxy-3,5-dimethyl-2-pyridyl)methyl]sulfinyl]imidazo[4,5-b]pyridine], for which the “pharmacological effect 10 h after treatment administration” value in data set [3] was “remains pharmacologically active”. In the data set with intragastric pH in dogs (10 mg/kg/day for 6 days), the “inhibition of gastric secretion” value is listed as “inhibit gastric secretion”. The “time over which a significant effect is observed” value in the data set on intragastric pH in dogs (10 mg/kg/day for 6 days, compared to baseline) was “from the first day of administration, and is maintained until two days after treatment termination”. Also, the “% of holding time for 24 hours pH > 3” value in the data set with intragastric pH in dogs (1st day of treatment) came out at 73%; in the data set with intragastric pH in dogs (2nd day of treatment), 82%; in the data set on intragastric pH in dogs (6th day of treatment), 93%. Besides, the “% of holding time for 24 hours pH > 4” value in the data set with intragastric pH in dogs (1st day of treatment) stood at 55%; in the data set with intragastric pH in dogs (2nd day of treatment), 75%; with intragastric pH in dogs (6th day of treatment) it was 75%. Besides, in data set [8], the “quality of healing (normalization of histological changes)” value was “significant increase”. In addition, the “onset of healing of ulcerative lesions” value in [8] (as compared with the (+) enantiomer) was “significantly improved”. For the same compound, the “appearance of the effect before that of the (+) enantiomer” value in data set [8] (healing of ulcerative lesions) is 1 days. For the same compound, the “metabolised more slowly than the (+) enantiomer” value at CYP2C19 (from Vmax values) is on record as “approximately 7 times”. Moreover, the “Vmax (maximal rate of metabolism)” value on CYP2C19 was 1.90 pmol/min per pmol of cytochrome. Further, the “cytochromes via which the enantiomer is metabolised” value in data set [4] (human, cytochromes (CYP3A4, CYP2C19) in vitro) is listed as “mainly metabolised via the cytochrome CYP3A4”. Also, the results for the “enantiomer in plasma (concentration)” value in data set [5] (listed as (−) Enantiomer) and in data set [5] (listed as (−) enantiomer) were “Increased” and “higher than that of the (+) enantiomer”, respectively. Moreover, in data set [9], the “half-life in comparison with the (+) enantiomer” value is listed as “significantly longer”. Besides, in data set [6] (setting [12]), the AUC versus dose result is “linear with the dose”. The “plasma concentration versus dose” value in data set [6] (setting [12]) is “linear with the dose”. The “between-subject variability of pharmacokinetic parameters” value in data set [6] (compared to the (+) isomer) is listed as “markedly lower”. Further, the half-life in data set [7] (human, in vivo, read-out: T1/2 (elimination half-life) (converted)) was 582 ± 54 min; in [10], 600 to 720 min. For the same compound, in data set [7], the “elimination half-life shorter than that of the (+) isomer” value is reported as “approximately 4 times”.

Values taken from patent US7652034B2, “Enantiomer (-) of tenatoprazole and the therapeutic use thereof” (Sidem Pharma, priority 2004, dated 2010).
